# Reference: ChEMBL document CHEMBL4507265 (2021)
# Experiments:
# [1] = biological target: Uncharacterized serine/threonine-protein kinase SBK3 (Homo sapiens) (UniProt P0C264); conditions: Compound concentration 1000.0 nM
# [2] = biological target: Serine/threonine-protein kinase 17A (Homo sapiens) (UniProt Q9UEE5); conditions: Compound concentration 1000.0 nM
# [3] = biological target: Tyrosine-protein kinase BTK (Homo sapiens) (UniProt Q06187); conditions: Compound concentration 1000.0 nM
# [4] = system: Mast/stem cell growth factor receptor Kit (Homo sapiens), P10721 [D816V]; conditions: Compound concentration 1000.0 nM
# [5] = biological target: Calcium/calmodulin-dependent protein kinase type IV (Homo sapiens) (UniProt Q16566); conditions: Compound concentration 1000.0 nM
# [6] = biological target: Serine/threonine-protein kinase PAK 1 (Homo sapiens) (UniProt Q13153); conditions: Compound concentration 1000.0 nM
# [7] = biological target: Fibroblast growth factor receptor 1 (Homo sapiens) (UniProt P11362); conditions: Compound concentration 1000.0 nM
# [8] = biological target: Tyrosine-protein kinase Fes/Fps (Homo sapiens) (UniProt P07332); conditions: Compound concentration 1000.0 nM
# [9] = biological target: Protein kinase C iota type (Homo sapiens) (UniProt P41743); conditions: Compound concentration 1000.0 nM
# [10] = biological target: Cyclin-dependent kinase 5 (Homo sapiens) (UniProt Q00535); conditions: Compound concentration 1000.0 nM
# [11] = biological target: Serine/threonine-protein kinase 36 (Homo sapiens) (UniProt Q9NRP7); conditions: Compound concentration 1000.0 nM
# [12] = biological target: Serine/threonine-protein kinase 3 (Homo sapiens) (UniProt Q13188); conditions: Compound concentration 1000.0 nM
# [13] = biological target: Bone morphogenetic protein receptor type-1B (Homo sapiens) (UniProt O00238); conditions: Compound concentration 1000.0 nM
# [14] = system: Phosphatidylinositol 4,5-bisphosphate 3-kinase catalytic subunit alpha isoform (Homo sapiens), P42336 [E545K]; conditions: Compound concentration 1000.0 nM
# [15] = system: Tyrosine-protein kinase ABL1 (Homo sapiens), P00519 [M351T]; conditions: Compound concentration 1000.0 nM
# [16] = biological target: Rhodopsin kinase GRK1 (Homo sapiens) (UniProt Q15835); conditions: Compound concentration 1000.0 nM
# [17] = biological target: 5-hydroxytryptamine receptor 1D (Homo sapiens) (UniProt P28221); conditions: Compound concentration 10.0 uM
# [18] = biological target: Serine/threonine-protein kinase Nek2 (Homo sapiens) (UniProt P51955); conditions: Compound concentration 1000.0 nM
# [19] = biological target: Rho-associated protein kinase 2 (Homo sapiens) (UniProt O75116); conditions: Compound concentration 1000.0 nM
# [20] = biological target: Mitogen-activated protein kinase 4 (Homo sapiens) (UniProt P31152); conditions: Compound concentration 1000.0 nM
# [21] = biological target: Ephrin type-B receptor 3 (Homo sapiens) (UniProt P54753); conditions: Compound concentration 1000.0 nM
# [22] = biological target: Sigma non-opioid intracellular receptor 1 (Homo sapiens) (UniProt Q99720); conditions: Compound concentration 10.0 uM
# [23] = biological target: Serine/threonine-protein kinase WNK2 (Homo sapiens) (UniProt Q9Y3S1); conditions: Compound concentration 1000.0 nM
# [24] = biological target: Vascular endothelial growth factor receptor 2 (Homo sapiens) (UniProt P35968); conditions: Compound concentration 1000.0 nM
# [25] = system: Mast/stem cell growth factor receptor Kit (Homo sapiens), P10721 [A829P]; conditions: Compound concentration 1000.0 nM
# [26] = biological target: Phosphatidylinositol 4,5-bisphosphate 3-kinase catalytic subunit alpha isoform (Homo sapiens) (UniProt P42336); conditions: Compound concentration 1000.0 nM
# [27] = biological target: Death-associated protein kinase 1 (Homo sapiens) (UniProt P53355); conditions: Compound concentration 1000.0 nM
# [28] = biological target: 5'-AMP-activated protein kinase catalytic subunit alpha-1 (Homo sapiens) (UniProt Q13131); conditions: Compound concentration 1000.0 nM
# [29] = system: Epidermal growth factor receptor (Homo sapiens), P00533 [UNDEFINED MUTATION]; conditions: Compound concentration 1000.0 nM
# [30] = biological target: Mitogen-activated protein kinase kinase kinase 19 (Homo sapiens) (UniProt Q56UN5); conditions: Compound concentration 1000.0 nM
# [31] = system: Phosphatidylinositol 4,5-bisphosphate 3-kinase catalytic subunit alpha isoform (Homo sapiens), P42336 [M1043I]; conditions: Compound concentration 1000.0 nM
# [32] = biological target: Membrane-associated tyrosine- and threonine-specific cdc2-inhibitory kinase (Homo sapiens) (UniProt Q99640); conditions: Compound concentration 1000.0 nM
# [33] = system: Receptor-type tyrosine-protein kinase FLT3 (Homo sapiens), P36888 [N841I]; conditions: Compound concentration 1000.0 nM
# [34] = biological target: Cyclin-dependent kinase 16 (Homo sapiens) (UniProt Q00536); conditions: Compound concentration 1000.0 nM
# [35] = species on record: Rattus norvegicus; conditions: Compound concentration 10.0 uM
# [36] = system: Epidermal growth factor receptor (Homo sapiens), P00533 [L858R,T790M]; conditions: Compound concentration 1000.0 nM
# [37] = biological target: Epithelial discoidin domain-containing receptor 1 (Homo sapiens) (UniProt Q08345); conditions: Compound concentration 1000.0 nM
# [38] = biological target: Muscarinic acetylcholine receptor M3 (Homo sapiens) (UniProt P20309); conditions: Compound concentration 10.0 uM
# [39] = biological target: Hormonally up-regulated neu tumor-associated kinase (Homo sapiens) (UniProt P57058); conditions: Compound concentration 1000.0 nM
# [40] = biological target: Mitogen-activated protein kinase 12 (Homo sapiens) (UniProt P53778); conditions: Compound concentration 1000.0 nM
# [41] = biological target: Ankyrin repeat and protein kinase domain-containing protein 1 (Homo sapiens) (UniProt Q8NFD2); conditions: Compound concentration 1000.0 nM
# [42] = biological target: Epidermal growth factor receptor (Homo sapiens) (UniProt P00533); conditions: Compound concentration 1000.0 nM
# [43] = biological target: Serine/threonine-protein kinase N2 (Homo sapiens) (UniProt Q16513); conditions: Compound concentration 1000.0 nM
# [44] = biological target: SRSF protein kinase 2 (Homo sapiens) (UniProt P78362); conditions: Compound concentration 1000.0 nM
# [45] = biological target: Serine/threonine-protein kinase OSR1 (Homo sapiens) (UniProt O95747); conditions: Compound concentration 1000.0 nM
# Sequence of Vascular endothelial growth factor receptor 2 (Homo sapiens) (P35968 whole entry): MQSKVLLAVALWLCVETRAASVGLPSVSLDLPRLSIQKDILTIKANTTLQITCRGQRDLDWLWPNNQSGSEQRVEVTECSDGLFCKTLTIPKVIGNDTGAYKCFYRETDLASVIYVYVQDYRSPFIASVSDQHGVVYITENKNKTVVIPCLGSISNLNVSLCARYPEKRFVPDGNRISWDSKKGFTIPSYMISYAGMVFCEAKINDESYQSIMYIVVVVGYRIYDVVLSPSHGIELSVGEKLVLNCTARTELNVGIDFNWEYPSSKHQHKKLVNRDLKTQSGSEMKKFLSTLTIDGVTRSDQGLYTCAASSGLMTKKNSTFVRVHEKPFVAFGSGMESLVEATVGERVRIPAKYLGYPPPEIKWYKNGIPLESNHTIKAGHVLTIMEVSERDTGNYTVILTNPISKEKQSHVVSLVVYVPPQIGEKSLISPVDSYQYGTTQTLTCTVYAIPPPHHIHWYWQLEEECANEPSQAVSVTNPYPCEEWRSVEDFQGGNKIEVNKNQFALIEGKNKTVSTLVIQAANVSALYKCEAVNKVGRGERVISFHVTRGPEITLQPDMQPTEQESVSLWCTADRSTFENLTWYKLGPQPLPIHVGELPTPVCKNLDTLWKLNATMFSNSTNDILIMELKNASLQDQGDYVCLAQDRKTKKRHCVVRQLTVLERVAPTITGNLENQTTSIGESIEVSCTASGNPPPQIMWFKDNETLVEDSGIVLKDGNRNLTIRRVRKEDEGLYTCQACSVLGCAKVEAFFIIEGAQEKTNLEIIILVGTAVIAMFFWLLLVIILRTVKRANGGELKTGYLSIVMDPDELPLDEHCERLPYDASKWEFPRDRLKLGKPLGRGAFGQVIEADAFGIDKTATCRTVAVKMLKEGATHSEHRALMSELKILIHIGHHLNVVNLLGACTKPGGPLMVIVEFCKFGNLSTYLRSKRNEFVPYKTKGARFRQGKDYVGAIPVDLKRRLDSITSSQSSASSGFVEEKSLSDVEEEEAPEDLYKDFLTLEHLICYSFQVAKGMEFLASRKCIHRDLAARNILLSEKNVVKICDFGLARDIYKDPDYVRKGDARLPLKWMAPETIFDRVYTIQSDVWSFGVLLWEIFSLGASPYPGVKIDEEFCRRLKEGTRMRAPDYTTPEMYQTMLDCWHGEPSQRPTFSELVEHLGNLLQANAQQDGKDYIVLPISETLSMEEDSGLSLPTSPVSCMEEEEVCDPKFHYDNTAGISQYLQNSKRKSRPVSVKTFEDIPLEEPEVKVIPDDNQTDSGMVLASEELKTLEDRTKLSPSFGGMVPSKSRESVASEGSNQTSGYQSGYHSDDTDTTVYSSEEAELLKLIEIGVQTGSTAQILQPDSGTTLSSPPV
# Sequence of Tyrosine-protein kinase BTK (Homo sapiens) (Q06187 whole entry): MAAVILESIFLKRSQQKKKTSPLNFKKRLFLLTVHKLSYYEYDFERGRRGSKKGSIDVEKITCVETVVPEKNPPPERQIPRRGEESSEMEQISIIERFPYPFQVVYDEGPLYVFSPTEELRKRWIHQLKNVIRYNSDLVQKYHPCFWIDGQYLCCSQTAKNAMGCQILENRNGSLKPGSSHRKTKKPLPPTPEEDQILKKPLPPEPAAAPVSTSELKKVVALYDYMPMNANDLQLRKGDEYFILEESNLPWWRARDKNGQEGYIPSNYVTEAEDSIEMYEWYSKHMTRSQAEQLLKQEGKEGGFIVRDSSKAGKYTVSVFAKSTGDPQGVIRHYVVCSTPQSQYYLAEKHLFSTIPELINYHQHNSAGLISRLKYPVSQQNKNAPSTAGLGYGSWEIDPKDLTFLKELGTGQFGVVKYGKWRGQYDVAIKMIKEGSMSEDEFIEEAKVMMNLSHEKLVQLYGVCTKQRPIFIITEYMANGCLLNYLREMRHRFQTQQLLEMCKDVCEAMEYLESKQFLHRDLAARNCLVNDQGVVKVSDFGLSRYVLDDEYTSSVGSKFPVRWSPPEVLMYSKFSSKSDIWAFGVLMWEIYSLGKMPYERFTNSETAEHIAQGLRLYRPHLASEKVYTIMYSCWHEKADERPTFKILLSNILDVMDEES
# Sequence of Mitogen-activated protein kinase kinase kinase 19 (Homo sapiens) (Q56UN5 whole entry, canonical isoform): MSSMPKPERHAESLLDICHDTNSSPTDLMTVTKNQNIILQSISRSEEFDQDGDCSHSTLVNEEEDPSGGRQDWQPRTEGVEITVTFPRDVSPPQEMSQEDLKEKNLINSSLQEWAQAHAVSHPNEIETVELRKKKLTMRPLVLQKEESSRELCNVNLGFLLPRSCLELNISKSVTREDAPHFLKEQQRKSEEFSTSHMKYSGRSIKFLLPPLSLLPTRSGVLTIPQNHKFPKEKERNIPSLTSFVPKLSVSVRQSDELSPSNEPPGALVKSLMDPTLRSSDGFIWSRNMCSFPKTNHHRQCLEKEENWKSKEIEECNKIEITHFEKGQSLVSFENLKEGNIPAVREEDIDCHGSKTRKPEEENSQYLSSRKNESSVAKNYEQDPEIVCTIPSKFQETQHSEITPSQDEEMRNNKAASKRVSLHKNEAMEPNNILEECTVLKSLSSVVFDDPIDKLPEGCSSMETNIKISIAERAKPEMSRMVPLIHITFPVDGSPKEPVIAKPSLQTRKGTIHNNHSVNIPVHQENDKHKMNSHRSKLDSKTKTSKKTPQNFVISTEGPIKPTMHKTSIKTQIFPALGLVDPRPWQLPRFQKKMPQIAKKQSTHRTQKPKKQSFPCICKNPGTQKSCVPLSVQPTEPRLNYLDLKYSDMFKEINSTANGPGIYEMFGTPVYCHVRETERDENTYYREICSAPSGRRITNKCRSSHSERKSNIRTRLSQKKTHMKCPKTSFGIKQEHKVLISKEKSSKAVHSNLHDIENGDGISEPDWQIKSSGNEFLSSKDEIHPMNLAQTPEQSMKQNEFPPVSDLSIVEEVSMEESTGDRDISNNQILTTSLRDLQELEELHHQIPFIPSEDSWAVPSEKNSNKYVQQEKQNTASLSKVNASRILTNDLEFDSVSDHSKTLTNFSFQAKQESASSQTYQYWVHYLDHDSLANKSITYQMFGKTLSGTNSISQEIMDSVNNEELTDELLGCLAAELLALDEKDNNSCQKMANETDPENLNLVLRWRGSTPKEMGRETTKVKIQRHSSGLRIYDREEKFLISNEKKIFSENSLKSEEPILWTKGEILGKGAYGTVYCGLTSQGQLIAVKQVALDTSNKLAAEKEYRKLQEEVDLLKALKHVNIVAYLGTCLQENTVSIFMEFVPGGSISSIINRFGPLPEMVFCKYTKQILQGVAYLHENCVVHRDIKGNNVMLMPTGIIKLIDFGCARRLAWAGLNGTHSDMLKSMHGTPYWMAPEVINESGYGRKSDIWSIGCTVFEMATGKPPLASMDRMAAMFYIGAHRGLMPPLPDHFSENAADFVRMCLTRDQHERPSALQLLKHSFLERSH
# Sequence of Rho-associated protein kinase 2 (Homo sapiens) (O75116 whole entry, looked up): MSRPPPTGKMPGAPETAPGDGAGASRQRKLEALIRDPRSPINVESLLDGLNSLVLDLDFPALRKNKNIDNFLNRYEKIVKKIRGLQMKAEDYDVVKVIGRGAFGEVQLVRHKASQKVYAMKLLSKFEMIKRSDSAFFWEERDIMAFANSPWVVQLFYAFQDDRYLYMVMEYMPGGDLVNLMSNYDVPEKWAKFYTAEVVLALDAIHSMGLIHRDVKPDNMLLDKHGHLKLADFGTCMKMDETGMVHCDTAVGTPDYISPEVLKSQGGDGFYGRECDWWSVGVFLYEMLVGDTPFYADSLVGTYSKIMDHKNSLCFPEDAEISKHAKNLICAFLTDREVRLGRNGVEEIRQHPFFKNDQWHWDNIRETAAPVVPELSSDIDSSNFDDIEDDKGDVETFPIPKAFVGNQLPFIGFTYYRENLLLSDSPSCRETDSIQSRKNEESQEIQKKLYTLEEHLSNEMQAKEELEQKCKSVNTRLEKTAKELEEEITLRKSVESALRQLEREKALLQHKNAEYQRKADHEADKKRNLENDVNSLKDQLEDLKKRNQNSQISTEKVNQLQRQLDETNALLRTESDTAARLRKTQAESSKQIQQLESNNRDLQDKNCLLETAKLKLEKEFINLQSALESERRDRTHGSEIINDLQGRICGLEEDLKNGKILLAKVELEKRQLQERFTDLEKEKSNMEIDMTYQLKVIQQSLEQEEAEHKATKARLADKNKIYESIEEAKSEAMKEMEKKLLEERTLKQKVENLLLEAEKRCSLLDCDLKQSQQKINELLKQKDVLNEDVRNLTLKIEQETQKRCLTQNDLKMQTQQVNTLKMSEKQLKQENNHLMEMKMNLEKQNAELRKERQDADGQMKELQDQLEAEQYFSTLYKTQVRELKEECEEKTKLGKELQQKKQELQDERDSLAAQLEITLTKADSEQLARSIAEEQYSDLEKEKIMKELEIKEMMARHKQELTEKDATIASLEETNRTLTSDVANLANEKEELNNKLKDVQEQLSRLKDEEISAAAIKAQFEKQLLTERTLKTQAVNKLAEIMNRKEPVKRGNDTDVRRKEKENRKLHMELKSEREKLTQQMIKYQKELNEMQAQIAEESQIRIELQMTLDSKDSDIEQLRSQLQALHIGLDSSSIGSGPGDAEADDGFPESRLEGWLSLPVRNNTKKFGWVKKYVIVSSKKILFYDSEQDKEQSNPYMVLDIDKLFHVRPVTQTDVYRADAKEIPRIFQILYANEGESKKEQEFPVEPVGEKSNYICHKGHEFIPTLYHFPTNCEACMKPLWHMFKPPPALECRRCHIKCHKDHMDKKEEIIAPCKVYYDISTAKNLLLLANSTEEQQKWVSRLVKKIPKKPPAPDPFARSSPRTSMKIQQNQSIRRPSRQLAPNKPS
# Sequence of 5-hydroxytryptamine receptor 1D (Homo sapiens) (P28221 whole entry): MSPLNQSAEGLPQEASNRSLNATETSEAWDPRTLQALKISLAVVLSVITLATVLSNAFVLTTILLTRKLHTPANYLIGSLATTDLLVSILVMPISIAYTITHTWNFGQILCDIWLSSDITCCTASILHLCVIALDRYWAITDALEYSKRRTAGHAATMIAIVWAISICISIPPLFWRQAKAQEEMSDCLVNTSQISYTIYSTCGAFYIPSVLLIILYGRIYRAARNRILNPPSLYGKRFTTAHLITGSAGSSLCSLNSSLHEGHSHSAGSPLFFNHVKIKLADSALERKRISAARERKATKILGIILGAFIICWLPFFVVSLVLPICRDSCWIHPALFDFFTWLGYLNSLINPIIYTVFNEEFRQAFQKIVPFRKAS
compound,measurement,setting,value
NS(=O)(=O)c1cc(NC(=O)Cc2ccccc2)ccc1Oc1cccc(Cl)c1 [BAY-1797],residual activity,[1],100%
same,residual activity,[2],94%
same,residual activity,[3],76%
same,residual activity,[4],77%
same,residual activity,[5],100%
same,residual activity,[6],88%
same,residual activity,[7],100%
same,residual activity,[8],92%
same,residual activity,[9],93%
same,residual activity,[10],61%
same,residual activity,[11],100%
same,residual activity,[12],78%
same,residual activity,[13],94%
same,residual activity,[14],77%
same,residual activity,[15],78%
same,residual activity,[16],83%
same,inhibition,[17],1.74%
same,residual activity,[18],89%
same,residual activity,[19],98%
same,residual activity,[20],91%
same,residual activity,[21],94%
same,inhibition,[22],-8.2%
same,residual activity,[23],0%
same,residual activity,[24],77%
same,residual activity,[25],74%
same,residual activity,[26],89%
same,residual activity,[27],90%
same,residual activity,[28],71%
same,residual activity,[29],67%
same,residual activity,[30],78%
same,residual activity,[31],93%
same,residual activity,[32],96%
same,residual activity,[33],55%
same,residual activity,[34],92%
same,inhibition,[35],5.06%
same,residual activity,[36],75%
same,residual activity,[37],94%
same,inhibition,[38],-0.53%
same,residual activity,[39],84%
same,residual activity,[40],100%
same,residual activity,[41],78%
same,residual activity,[42],84%
same,residual activity,[43],90%
same,residual activity,[44],88%
same,residual activity,[45],78%
NS(=O)(=O)c1cc(NC(=O)C2(c3ccccc3Cl)CC2)ccc1Oc1cccc(Cl)c1 [BAY-207],residual activity,[1],74%
same,residual activity,[2],85%
same,residual activity,[3],88%
same,residual activity,[4],93%
same,residual activity,[5],43%
same,residual activity,[6],79%
same,residual activity,[7],100%
same,residual activity,[8],64%
same,residual activity,[9],98%
same,residual activity,[10],74%
same,residual activity,[11],99%
same,residual activity,[12],94%
same,residual activity,[13],81%
same,residual activity,[14],96%
same,residual activity,[15],70%
same,residual activity,[16],72%
same,inhibition,[17],6.75%
same,residual activity,[18],86%
same,residual activity,[19],100%
same,residual activity,[20],87%
same,residual activity,[21],62%
same,inhibition,[22],18.6%
same,residual activity,[23],88%
same,residual activity,[24],74%
same,residual activity,[25],69%
same,residual activity,[26],100%
same,residual activity,[27],98%
same,residual activity,[28],80%
same,residual activity,[29],57%
same,residual activity,[30],70%
same,residual activity,[31],98%
same,residual activity,[32],70%
same,residual activity,[33],32%
same,residual activity,[34],100%
same,inhibition,[35],87.5%
same,residual activity,[36],88%
same,residual activity,[37],83%
same,inhibition,[38],17.9%
same,residual activity,[39],75%
same,residual activity,[40],54%
same,residual activity,[41],97%
same,residual activity,[42],75%
same,residual activity,[43],83%
same,residual activity,[44],100%
same,residual activity,[45],100%
